Reference: patent publication US4267175A, “Benzamide derivatives” (Beecham Group Limited, priority 1976, dated 1981)

Experiments:
Assay type in all cases: in vivo
[1] = tested on: stereotype behaviour induced by apomorphine (dopamine receptor blockade in the central nervous system); assay: Inhibition of stereotype behaviour induced by apomorphine; settings: rat; for Inhibition of Stereotype Behaviour, active dose: s.c., apomorphine induced, active doses (mg/kg)
Procedure: (§1) 1. Compounds prepared in the Examples were tested for the following pharmacological activities in the rat:
(c) Inhibition of stereotype behaviour induced by apomorphine
This is indicative of dopamine receptor blockade in the central nervous system.

[2] = tested on: amphetamine induced stereotypy; assay: Antagonism of Amphetamine Stereotypy; settings: rats, 10 mg/kg subcutaneously; d-amphetamine 10 mg/kg s.c.
Procedure: Antagonism of Amphetamine Stereotypy
Based on method of Jansen, Niemegeers and Schellekens (1966), Arzneimittel Forsch., 15, pp. 104-117. Rats were given compound 15 minutes prior to subcutaneous injection of d-amphetamine (10 mg/kg). 30 minutes and 1 hour after the amphetamine, the degree of stereotyped behaviour was scored according to the method of Costal, Naylor and Olley (1972). Europ. J. Pharmacol., 18, pp. 83-94. The percentage inhibition of stereotypy at the respective time interval was calculated.

[3] = tested on: catapresan induced fighting behaviour; assay: Catapresan Test (catapresan induced fighting behaviour); settings: Mus musculus, po; mice, orally; catapresan 20-25 mg/kg intravenously; read-out: ED50, inhibition of catapresan induced fighting behaviour
Procedure: Catapresan (20-25 mg/kg intravenously) was used to induce fighting behaviour in mice. The fighting was assessed as the biting of a dead mouse placed in the cage and was given a score of 1 or 2 depending on intensity. Compound effect was measured as percentage inhibition of fighting compared to that with control animals and the dose reducing fighting by 50% was determined graphically.

[4] = tested on: intragastric pressure; assay: Increase in intragastric pressure in the rat; settings: s.c., active doses (mg/kg)
Procedure: as §1
(a) Increase in intragastric pressure
Intragastric pressure changes were recorded from previously starved conscious but restrained rats using a saline filled catheter inserted into the lumen of the stomach via a permanent gastric fistula. The catheter was connected to a physiological pressure transducer and pressure changes recorded on a hot wire pen recorder. In each animal a pre dose period of 40 minutes was allowed to obtain a measure of spontaneous activity. An index of activity was obtained by measuring the average height of pressure waves during 10 minute periods. Values for 4 such periods were obtained during assessment of spontaneous activity and for the 40 minute period after the subcutaneous administration of the Compounds. Student "t" test was applied to the difference in average values obtained for spontaneous and post Compound activity.

[5] = tested on: intragastric pressure; assay: Increase in intragastric pressure in the rat; settings: p.o., active doses (mg/kg)
[6] = tested on: emetic response to apomorphine; assay: Anti-emetic activity in the dog (abolition of emetic response to apomorphine); settings: for ED50: Canis lupus familiaris, sc, apomorphine emesis
Procedure: 2. Anti- emetic activity in the dog
(a) Compounds were tested in the dog for their ability to abolish the emetic response to apomorphine.

[7] = tested on: apomorphine induced delay in gastric emptying; assay: Increase in gastric emptying - reversal of apomorphine induced delay in gastric emptying of a test meal; settings: rat, s.c., apomorphine HCl 5 mg/kg s.c., active doses (mg/kg); for Increase in Gastric Emptying, active dose (slightly active): slightly active at this dose
Procedure: as §1
(b) Increase in gastric emptying-reversal of apomorphine induced delay in gastric emptying of a test meal.
Rats equipped with chronic gastric fistual were used and it was through this that 5 ml of a test meal (5 ml phosphate buffer at pH 9) was administered and recovered. The % recovery of the standard meal after remaining in the stomach for 10 minutes was taken as an index of gastric emptying. Delay in gastric emptying was induced by the administration of Apomorphine HCl (5 mg/kg subcutaneously) and was given 15 minutes prior to the subcutaneous administration of the Compound. The % recoveries of the test meal was determined at 15-25 and 45-55 minutes post dosing with the Compound and compared with vehicle only dosed animals set up simultaneously. Six animals were used for each group.

## COc1ccc(CN2CCN(NC(=O)c3cc(Cl)c(N)cc3OC)CC2)cc1 [Example 8, 4-Amino-5-chloro-2-methoxy-N-[4-(4-methoxybenzyl)-1-piperazinyl]benzamide]
[1]
  Inhibition of Stereotype Behaviour, active dose: 3 mg

## COc1cc(N)c(Cl)cc1C(=O)NN1CCN(Cc2ccc(N(C)C)cc2)CC1 [Example 23, 4-Amino-5-chloro-2-methoxy-N-[4-(4-dimethylaminobenzyl)-1-piperazinyl]benzamide]
[2]
  Inhibition of amphetamine induced stereotypy: 25%
[3]
  ED50: 60 mg/kg

## COc1cc(N)c(Br)cc1C(=O)NN1CCN(C)CC1 [Example 21, 4-Amino-5-bromo-2-methoxy-N-[4-methyl-1-piperazinyl]-benzamide hemihydrate]
[4]
  Increase in Intra-gastric Pressure, active dose: 5 mg/kg
[1]; at 50 mg s.c.
  Inhibition of Stereotype Behaviour: Inactive

## COc1cc(N)c(Cl)cc1C(=O)NN1CCN(C)CC1 [Example 4, 4-amino-5-chloro-2-methoxy-N-[4-methyl-1-piperazinyl]benzamide]
[5]
  Increase in Intra-gastric Pressure, active dose: 10 mg/kg

## CCCCN1CCCN(NC(=O)c2cc(Cl)c(N)cc2OC)CC1 [Example 22, 4-Amino-5-chloro-2-methoxy-N-[4-n-butyl-1-(1-4-diazocycloheptyl)]benzamide]
[6]; at 5 mg/kg subcutaneously
  Inhibition of apomorphine induced emesis: completely inhibited

## COc1cc(N)c(Cl)cc1C(=O)NN1CCCN(C)CC1 [Example 9, 4-Amino-5-chloro-2-methoxy-N-[4-methyl-1-(1,4-diazacycloheptyl)]benzamide]
[4]
  Increase in Intra-gastric Pressure, active dose: 10 mg/kg
[1]; at 25 mg s.c.
  Inhibition of Stereotype Behaviour: Inactive
[6]; at 2 mg/kg s.c., inhibition of no. of vomits only
  Anti-emetic activity: slight activity

## COc1cc(N)c(Cl)cc1C(=O)NN1CCN(Cc2cccs2)CC1 [Example 11, 4-Amino-5-chloro-2-methoxy-N-[4-(2-thenyl)-1-piperazinyl]-benzamide]
[4]; slightly active at this dose
  Increase in Intra-gastric Pressure, active dose (slightly active): 50 mg
[1]; at 50 mg s.c.
  Inhibition of Stereotype Behaviour: Inactive

## COc1cc(N)c(Cl)cc1C(=O)NN1CCN(C)CC1 [Example 2, 4-Amino-5-chloro-2-methoxy-N-[4-methyl-1-piperazinyl]benzamide]
[4]
  Increase in Intra-gastric Pressure, active dose: 1 mg/kg
[1]; at 100 mg s.c.
  Inhibition of Stereotype Behaviour: Inactive
[6]
  ED50: 8 mg/kg
[5]
  Increase in Intra-gastric Pressure, active dose: 20 mg/kg

## COc1cc(N)c(Cl)cc1C(=O)NN1CC[N+](C)(C)CC1.[Br-] [Example 17, 4-Amino-5-chloro-2-methoxy-N-[4-methyl-1-piperazinyl]-benzamide methobromide]
[4]
  Increase in Intra-gastric Pressure, active dose: 0.5 mg/kg
[1]; at 50 mg s.c.
  Inhibition of Stereotype Behaviour: Inactive

## COc1cc(N)c(Cl)cc1C(=O)NN1CC[N+](C)(Cc2ccccc2)CC1.[Br-] [Example 18, 4-Amino-5-chloro-2-methoxy-N-[4-methyl-1-piperazinyl]-benzamide benzobromide]
[4]
  Increase in Intra-gastric Pressure, active dose: 25 mg/kg
[7]
  Increase in Gastric Emptying, active dose: 25 mg
[1]; at 50 mg s.c.
  Inhibition of Stereotype Behaviour: Inactive

## CCCCCN1CCN(NC(=O)c2cc(Cl)c(N)cc2OC)CC1 [Example 13, 4-amino-5-chloro-2-methoxy-N-[4-(1-pentyl)-1-piperazinyl]-benzamide]
[1]
  Inhibition of Stereotype Behaviour, active dose: 50 mg
[6]
  ED50: 0.36 mg/kg

## CCCC[N+]1(C)CCN(NC(=O)c2cc(Cl)c(N)cc2OC)CC1.[Br-] [Example 19, 4-Amino-5-chloro-2-methoxy-N-[4-n-butyl-1-piperazinyl]-benzamide methobromide]
[4]
  Increase in Intra-gastric Pressure, active dose: 1 mg/kg
[7]
  Increase in Gastric Emptying, active dose (slightly active): 50 mg
[1]; at 50 mg s.c.
  Inhibition of Stereotype Behaviour: Inactive

## COc1cc(N)c(Cl)cc1C(=O)NN1CCN(Cc2ccccc2)CC1 [Example 1, 4-Amino-5-chloro-2-methoxy-N-[4-benzyl-1-piperazinyl]benzamide]
[1]
  Inhibition of Stereotype Behaviour, active dose: 0.625 mg
[6]
  ED50: 0.0125 mg/kg

## COc1cc(N)c(Cl)cc1C(=O)NN1CCN(Cc2ccc(Cl)cc2)CC1 [Example 7, 4-Amino-5-chloro-2-methoxy-N-{[4-(4-chlorobenzyl)]1-piperazinyl}benzamide]
[1]
  Inhibition of Stereotype Behaviour, active dose: 50 mg

## COc1cc(N)c(Cl)cc1C(=O)NN1CCN(CCC(C)C)CC1 [Example 20, 4-Amino-5-chloro-2-methoxy-N-[4-(3-methylbutyl)-1-piperazinyl]-benzamide]
[6]
  ED50: 0.35 mg/kg

## CCN1CCN(NC(=O)c2cc(Cl)c(N)cc2OC)CC1 [Example 5, 4-Amino-5-chloro-2-methoxy-N-[4-ethyl-1-piperazinyl]benzamide]
[4]
  Increase in Intra-gastric Pressure, active dose: 50 mg/kg
[1]; at 50 mg s.c.
  Inhibition of Stereotype Behaviour: Inactive

## COc1cc(N)c(Cl)cc1C(=O)NN1CCN(Cc2ccsc2)CC1 [Example 12, 4-Amino-5-chloro-2-methoxy-N-[4-(3-thenyl)-1-piperazinyl]-benzamide]
[1]
  Inhibition of Stereotype Behaviour, active dose: 50 mg

## CCCCN1CCN(NC(=O)c2cc(Cl)c(N)cc2OC)CC1 [Example 6, 4-Amino-5-chloro-2-methoxy-N-[4-n-butyl-1-piperazinyl]benzamide]
[4]
  Increase in Intra-gastric Pressure, active dose: 5 mg/kg
[1]; at 25 mg s.c.
  Inhibition of Stereotype Behaviour: Inactive
[6]
  ED50: 1 mg/kg

## COc1cc(N)c(Cl)cc1C(=O)NN1CCN(C(C)C)CC1 [Example 16, 4-amino-5-chloro-2-methoxy-N-[4-(2-propyl)-1-piperazinyl]-benzamide]
[4]
  Increase in Intra-gastric Pressure, active dose: 5 mg/kg
[1]; at 50 mg s.c.
  Inhibition of Stereotype Behaviour: Inactive

## COc1cc(N)c(Cl)cc1C(=O)NN1CCN(Cc2ccc(F)cc2)CC1 [Example 14, 4-amino-5-chloro-2-methoxy-N-[4-(4-fluorobenzyl)-1-piperazinyl]-benzamide]
[1]
  Inhibition of Stereotype Behaviour, active dose: 50 mg

## CCCN1CCN(NC(=O)c2cc(Cl)c(N)cc2OC)CC1 [Example 15, 4-amino-5-chloro-2-methoxy-N-[4-(1-propyl)-1-piperazinyl]-benzamide]
[4]
  Increase in Intra-gastric Pressure, active dose: 10 mg/kg
[7]
  Increase in Gastric Emptying, active dose (slightly active): 50 mg
[1]; at 50 mg s.c.
  Inhibition of Stereotype Behaviour: Inactive
